Nine molecules from patent US10280156B2, “Heteroaromatic chalcone derivatives and their medical use” (Medizinische Universität Wien, priority 2014, dated 2019) can be followed below.

The test system of data set [1] is MEC1. The data set is described as follows: Viability test (CellTiter-Blue/EZ4U) on MEC1 cells, 48 h. It is filed as cell-based, human. The following applies: 48 h incubation, nd = no significant cytotoxic activity up to 100 μM. The procedure:
(§1) JURKAT and CCRF-CEM (T-cell acute lymphoblastic leukemia), HL60 and K562 representing acute and chronic myeloid leukemia, respectively, the chronic lymphocytic leukemia cell line MEC-1, and the diffuse large B-cell lymphoma cell line U-2940 were cultured in Gibco RPMI 1640+GlutaMAX (Life Technologies, Carlsbad, Calif., USA) supplemented with 10% fetal bovine serum gold (FBS gold; PAA Laboratories, Pasching, Austria) and 1% PenStrep (100 U/ml penicillin and 100 μg/ml streptomycin; PAA Laboratories), and maintained at 37° C. in humidified atmosphere with 5% CO2. The diffuse large B-cell lymphoma cell line OCI-LY7 was cultured in Gibco IMDM+GlutaMAX and 25 mM HEPES (Life Technologies) containing 20% FBS gold and 1% PenStrep.
(§2) All experiments with hematological cell lines were done using phenol red-free RPMI 1640+L-glutamine (PAA Laboratories) supplemented with 1% PenStrep and 10% FBS gold, except experiments with OCI-Ly7 which were carried out in Gibco IMEM+GlutaMAX and 25 mM HEPES containing 20% FBS gold and 1% PenStrep. Cells were incubated in triplicates with increasing concentrations of the compounds for 48 h, changes in viability were determined using the cell proliferation and cytotoxicity assays EZ4U (Biomedica Group, Austria) and CellTiter-Blue Cell Viability Assay (Promega, Madison, Wis., USA) following instructions of the manufacturers. IC50 values were calculated from two independent experiments using GraphPad Prism 5 software.
(§3) Initially, compounds were biologically tested in six concentration steps (0.1 μM; 1 μM; 5 μM; 10 μM; 50 μM; and 100 μM) using the CellTiter-Blue Cell Viability Assay (Promega, Madison, Wis., USA) and an incubation time of 48 hours. […] IC50 values were calculated from at least two independent experiments with 3 replicates each. In order to evaluate the biologic activity of the new compounds, cytotoxicity was compared to that of fludarabine, an already approved drug for the treatment of various B-cell malignancies. […] Differences in IC50 values for the different cell types can be explained by the biological and genetic particularities of each subtype of B-cell Non-Hodgkin lymphoma (Stacchini A et al. Leukemia Res 1999, 23, 127-136; Sambade C et al. Int J Cancer 2006, 118, 555-563; Chang H et al. Leukemia lymphoma 1995, 19, 165-171; Tweeddale M E et al. Blood 1987, 69, 1307-1314; Tweeddale M et al. Blood 1989, 74, 572-578).
(Resazurin is reduced to fluorescent resorufin, in cell work by metabolically active cells.)

The subject of data set [2] is OCI-Ly7. Kind of data set: Viability test on OCI-Ly7 cells, 48 h. The following applies: 48 h incubation, nd = no significant cytotoxic activity up to 100 μM. It is filed as cell-based, human. The procedure:
as §1, §2, §3

In data set [3] the test system is M2-10B4. The data set is described as follows: Viability test on mouse fibroblast cell line M2-10B4, 48 h. It is filed as cell-based. The following applies: for pIC50: 48 h incubation, mouse fibroblast cell line. On the procedure: as §2
Structurally seen, the small molecule compound 1 represents a typical chalcone scaffold. It is characterized by an ortho-ethoxy-substituted phenyl part as ring A and a 2-naphthyl moiety symbolizing ring B. The focus of the present study was to guide the systematic identification of a growth inhibitor with specificity to neoplastic cells, as cytotoxicity towards healthy cells is mostly associated with adverse effects, which can be related to morbidity and mortality of the patient (Milligan D W et al. Brit J Haematol 2006, 135, 450-474). To discriminate in vitro between structural elements necessary for potent cytotoxicity towards tumor cells which, at the same time, clearly show less activity on normal cells, the compounds were additionally tested on the murine bone marrow fibroblast cell line M2-10B4. This cell line is regularly used as feeder layer when cultured with patient cells providing additional support and survival signals in particular in drug screens (Kurtova A V et al. Blood 2009, 114, 4441-4450).
as §3

For data set [4], the system named is U-2940. The data set is described as follows: Viability test on U-2940 cells, 48 h. The data set is classed as cell-based, human. The conditions noted are these: 48 h incubation, nd = no significant cytotoxic activity up to 100 μM. The procedure:
as §1, §2, §3

SMILES strings stand for the structures. pIC50: −log10 of the molar value.

A word on the pIC50: it is the negative decadic logarithm of the IC50, by convention in mol/L. Higher therefore signals a low IC50. As a reminder, the melting point is the temperature, or range, at which the solid turns liquid. With `CCOc1ccccc1C(=O)/C=C/c1ccc2ccccc2c1` [Compound 1, 3-(2-Napthyl)-1-(2-ethoxyphenyl)-2-propen-1-one], the melting point was in the range of 96 to 97 °C. Besides, in data set [1] (Homo sapiens, MEC1, 48 h), the pIC50 was 7.22. In addition, in data set [2] (Homo sapiens, OCI-Ly7, 48 h), the pIC50 was 7.22. Further, the pIC50 in data set [3] (Mus musculus, M210B4, 48 h) is 5.11. Further, the pIC50 in data set [4] is 5.35. Besides, the pIC50 in data set [4] (Homo sapiens, U-2940, 48 h) is 5.61.

In turn, `CC(C)Oc1ccccc1C(=O)/C=C/c1ccc2ccccc2c1` [Compound 5] yielded a melting point of 82 to 85 °C. The molecule also gave a pIC50 in data set [1] (Homo sapiens, MEC1, 48 h) of 5.93. Besides, in data set [2] (Homo sapiens, OCI-Ly7, 48 h), the pIC50 is 6.82. For the same molecule, the pIC50 in data set [3] (Mus musculus, M210B4, 48 h) is below 4.00. Also, the pIC50 in data set [4] (Homo sapiens, U-2940, 48 h) was 4.95.

As for `C=Cc1cccc(/C=C/C(=O)c2ccccc2OCC)c1` [Compound 8, 3-(3-Ethenylphenyl)-1-(2-ethoxyphenyl)-2-propen-1-one], the pIC50 is 6.70 in data set [1] (Homo sapiens, MEC1, 48 h); 6.30 in data set [2] (Homo sapiens, OCI-Ly7, 48 h); below 4.00 in data set [3] (Mus musculus, M210B4, 48 h); 5.60 in data set [4] (Homo sapiens, U-2940, 48 h). Further, in data set [3] (mouse fibroblasts), the “cytotoxic potential on M2-10B4 (in words)” value is “did not show any activity”.

Turning to `CCOc1ccccc1C(=O)/C=C/c1ccc2c(c1)OCO2` [Compound 9, 3-(1,3-Benzodioxol-5-yl)-1-(2-ethoxyphenyl)-2-propen-1-one], the melting point was in the range of 65 to 70 °C. This molecule also had a pIC50 in data set [1] (Homo sapiens, MEC1, 48 h) of 5.96. The same molecule had a pIC50 in data set [2] (Homo sapiens, OCI-Ly7, 48 h) of 6.89. For the same molecule, the pIC50 in data set [3] (Mus musculus, M210B4, 48 h) is below 4.00. In data set [4] (Homo sapiens, U-2940, 48 h), the pIC50 was 5.02.

`CCOc1ccccc1C(=O)/C=C/c1cccc2ccccc12` [Compound 10, 1-(2-Ethoxyphenyl)-3-(1-naphthyl)-2-propen-1-one] had a melting point of 109 to 110 °C. This molecule had a pIC50 in data set [1] (Homo sapiens, MEC1, 48 h) of 5.72. In data set [2] (Homo sapiens, OCI-Ly7, 48 h), this molecule showed a pIC50 of 5.83. Besides, the pIC50 in data set [3] is 4.77. For the same molecule, the pIC50 in data set [3] (Mus musculus, M210B4, 48 h) was 4.85. Further, the pIC50 in data set [4] (Homo sapiens, U-2940, 48 h) was 5.13.

In the case of `CCOc1ccccc1C(=O)/C=C/c1c2ccccc2cc2ccccc12` [Compound 11, 3-(9-Anthranyl)-1-(2-ethoxyphenyl)-2-propen-1-one], the pIC50 in data set [1] was below 4.00; in data set [1] (Homo sapiens, MEC1, 48 h) it was below 4.30; in data set [2], below 4.00; in data set [2] (Homo sapiens, OCI-Ly7, 48 h) it was below 4.30; in data set [3] (Mus musculus, M210B4, 48 h) it was below 4.30; in data set [4], below 4.00. Further, the pIC50 in data set [4] (Homo sapiens, U-2940, 48 h) is below 4.30.

Regarding `CCOc1ccccc1C(=O)/C=C/c1cc2ccccc2c2ccccc12` [Compound 12, 1-(2-Ethoxyphenyl)-3-(9-phenanthrenyl)-2-propen-1-one], the melting point fell in the range of 117 to 120 °C. For the same molecule, in data set [1] (Homo sapiens, MEC1, 48 h), the pIC50 is 5.79. Further, in data set [3] (Mus musculus, M210B4, 48 h), the pIC50 is below 4.00. Besides, the pIC50 in data set [4] (Homo sapiens, U-2940, 48 h) is 4.40.

In turn, `CCOc1ccccc1C(=O)/C=C/c1ccc2sccc2c1` [Compound 13, 3-(5-Benzo[b]thienyl)-1-(2-ethoxyphenyl)-2-propen-1-one] came in with a melting point of 104 to 106 °C. Moreover, the pIC50 in data set [1] (Homo sapiens, MEC1, 48 h) was 6.47. The molecule also gave a pIC50 in data set [2] (Homo sapiens, OCI-Ly7, 48 h) of 6.47. The negative logarithm of the IC50 (pIC50) in data set [3] (Mus musculus, M210B4, 48 h) is 4.68. The same molecule gave a pIC50 in data set [4] (Homo sapiens, U-2940, 48 h) of 5.04.

Turning to `CCOc1ccccc1C(=O)/C=C/c1csc2ccccc12` [Compound 14, 3-(1-Benzothien-3-yl)-1-(2-ethoxyphenyl)-2-propen-1-one], the pIC50 in data set [1] (Homo sapiens, MEC1, 48 h) is 6.77; in data set [2] (Homo sapiens, OCI-Ly7, 48 h), 7.00; in data set [3] (Mus musculus, M210B4, 48 h) it was 5.09; in data set [4] (Homo sapiens, U-2940, 48 h), 6.07.
